Reference: article PMC4830539, “Chemical Inhibition of Histone Deacetylases 1 and 2 Induces Fetal Hemoglobin through Activation of GATA2” (PLoS ONE, 2016)

Experiments:
HbF = test system: HbF; set-up: method as in PMID 16888791, PMID 12393499, PMID 25808664, PMID 24606390, PMID 16939493; details: cell lines and primary cells; cited from earlier work
erythroid progenitors = test system: erythroid progenitors; set-up: method as in PMID 16939493; details: by suppressing the EPO-mediated survival of CD36highGYPAhigh cells; cited from earlier work
HbF protein = HbF protein by flow cytometry in BM cells (CS1, CS2); type: cell-based, human; details: 1 μM ACY-957 or 30 μM hydroxyurea
Protocol: CD34+ cells isolated from human bone marrow of healthy normal donors (Lonza, AllCells, or StemCell Technologies), referred to as BM cells throughout this work, were cultured using two distinct 2-phase culture systems. These systems have been described previously and are referred to as Culture System 1 (CS1) and Culture System 2 (CS2) throughout this work. CS1 expansion media is StemSpan SFEM (StemCell Technologies) supplemented with CC100 (StemCell Technologies), 100 U/mL penicillin and 100 μg/mL streptomycin. CC100 is a mix of Flt-3 ligand (FLT3LG), KIT ligand (KITLG), interleukin-3 (IL3), and interleukin-6 (IL6). CS1 differentiation media is StemSpan SFEM supplemented with 1 U/ml erythropoietin (EPO), 5 ng/mL IL3, 20 ng/mL KITLG, 2 μM dexamethasone, 1 μM beta-estradiol, 100 U/mL penicillin and 100 μg/mL streptomycin. CS2 expansion media is StemSpan SFEM supplemented with 1% glutamine, 40 μg/mL lipids (Sigma), 100 ng/mL KITLG, 10 ng/mL IL3, and 0.5 U/mL EPO. CS2 differentiation media is same as CS2 expansion media, except 3 U/mL EPO.
Flow cytometry was performed on a FC500 flow cytometer ([…]). Fetal hemoglobin protein was assayed using the Fetal Hemoglobin Test Kit (Life Technologies) according to manufacturer’s protocol. Samples were stained with FITC-conjugated mouse IgG1 anti-human HbF antibody (clone HbF-1, Life Technologies). Each sample was also stained with a FITC-conjugated mouse IgG1 isotype control antibody (clone X40, BD Biosciences) and used as a negative control. FETALtrol cells were used as positive controls (Trillium Diagnostics). TFRC and GYPA were detected on fresh cells by staining with 20 μL of PE-conjugated anti-human TFRC (clone M-A712, catalog 555537, BD Biosciences) and 0.5 μL of FITC- or APC-conjugated anti-human GYPA (clone GA-R2 (HIR2), catalog 559943 or 551336, BD Biosciences) in 200 μL PBS with 0.1% BSA for 40 min on ice. Forward and side scatter, or staining with 7AAD (catalog 559925, BD Biosciences), was used to identify viable cells.
To determine if the HBG mRNA induction observed in the presence of ACY-957 was associated with an increase in the HbF protein, CS1 and CS2 cells at day 5 were stained with a fluorescently conjugated anti-HbF antibody and evaluated by flow cytometry. HbF positive cells were increased by 2 to 3-fold upon treatment with ACY-957, which exceeded the response observed with hydroxyurea (Fig 2B and 2E).

Compound	HbF induction (HbF)	effect on erythroid progenitors (erythroid progenitors)	also measured
C/C=C1\NC(=O)[C@H]2CSSCC/C=C/[C@H](CC(=O)N[C@H](C(C)C)C(=O)N2)OC(=O)[C@H](C(C)C)NC1=O [romidepsin]	induce HbF	accumulation CD36^highGYPA^mid erythroid progenitors	–
CCN(CC)Cc1ccc2cc(COC(=O)Nc3ccc(C(=O)NO)cc3)ccc2c1 [givinostat]	induce HbF	–	–
O=C(CCCCCCC(=O)Nc1ccccc1)NO [vorinostat]	induce HbF	–	–
NC(=O)NO [hydroxyurea, reference compound]	–	–	HbF positive cells (HbF protein; CS1, day 5): 20%; MFI of HbF positive cells (HbF protein; CS1, day 5): 52; HbF positive cells (HbF protein; CS2, day 5): 39%; MFI of HbF positive cells (HbF protein; CS2, day 5): 12
CC(/C=C/C(=O)NO)=C\[C@@H](C)C(=O)c1ccc(N(C)C)cc1 [trichostatinA]	–	accumulation CD36^highGYPA^mid erythroid progenitors	–
Nc1ccccc1NC(=O)c1ccc(CNC(=O)OCc2cccnc2)cc1 [MS-275]	induce HbF	–	–
